In patent publication US20260137700A1, “PHARMACEUTICAL COMBINATION OF PRMT5 INHIBITOR AND DNA DAMAGE-INDUCING SUBSTANCE” (SK Biopharmaceuticals Co., Ltd., priority 2022, published 2026):

Legend:
DNA damage repair genes = experiment: Gene expression analysis in patient-derived xenograft mice (CTG-2534); format: in vivo, mouse; details: compound-87 oral, 3-day on/4-day off; tumors taken when solvent group reached 955 mm^3
Excerpt: In order to analyze changes in gene expression by PRMT5 inhibitor treatment according to one example of the present invention, patient-derived cells CTG-2534 were xenografted into mice subcutaneously, and then the mice were divided into groups, when the tumor volume reached 80 to 300 mm^3. The solvent-treated group (vehicle group) or the compound-87 treatment group was orally administered on a 3-day on/4-day off schedule. When the tumor volume of the solvent-treated group reached 955 mm^3, the tumors were separated and performed for gene expression analysis.
FIG. 30 is a heat map showing the change in expression of DNA damage repair genes using Z-score values for Log2FPKM, after compound-87 treatment were performed in patient-derived lung cancer […] cell xenograft mice. In FIG. 30, the solvent-treated group is shown in red (positive value), and the compound-87-treated group is shown in blue (negative value).

[1] = system: human pancreatic cancer cells CAPAN-1; experiment: Subcutaneous xenograft mouse model of CAPAN-1 pancreatic cancer cells, tumor volume; format: in vivo; details: Day 31, solvent group 1,017 mm^3
Description: For in vivo efficacy studies in a subcutaneous xenograft mouse model of human pancreatic cancer cells CAPAN-1, co-administration of compound-87 as a PRMT5 inhibitor according to one example of the present invention and Gemcitabine as an anti-metabolite of a chemotherapeutic agent, was performed.
To produce a pancreatic cancer xenograft model, 5 million CAPAN-1 cells were injected subcutaneously into the right flank of female nude mice, and tumor growth was monitored.
To evaluate the anticancer effect, when the tumor volume reached approximately 185 mm^3 on average, the mice were divided into six groups. The all group included the solvent-treated group (vehicle group), the compound-87 monotherapy group (25 mg/kg or 50 mg/kg), the gemcitabine monotherapy group (50 mg/kg), combination therapy group of the compound-87 (25 mg/kg or 50 mg/kg), and the gemcitabine. The vehicle A group or the compound-87 treatment group was administered orally on a 3-day administration/4-day non-administration schedule, and the vehicle B group or the gemcitabine treatment group was administered intraperitoneally twice a week.

[2] = system: symmetric dimethyl arginine (SDMA); experiment: In vivo target inhibition: SDMA ELISA in tumor samples of the Mia PaCa-2 xenograft mouse model
Description: Quantitative reduction levels of symmetric dimethyl arginine (SDMA) in tumor samples harvested from a subcutaneous xenograft mouse model of Mia PaCa-2 were measured by enzyme-linked immunosorbent assay (ELISA).
Reagents: Bradford solution (catalog no. 500-0006) was purchased from Bio-rad (USA). SDMA antibody (catalog no. 13222s) was purchased from Cell signaling Technology (USA). SmD3 antibody (catalog no. ap12451a) was purchased from Abgent (USA). Secondary antibody (catalog no. ab6721) and TMB substrate (catalog no. ab210902) were purchased from Abcam (UK).
Experimental procedure: Tumor tissue transplanted into mice was extracted, cells were lysed, and quantified with Bradford solution. […] of protein per sample was diluted with carbonate-bicarbonate buffer, dispensed into a 96-well plate, and reacted at room temperature for 2 hours. After washing three times with phosphate-buffered saline (PBST) containing 0.05% Tween-20, 200 μL of PBST containing 5% bovine serum albumin (BSA) (BSA-PBST) was added, and reacted at room temperature for 2 hours. After washing three times with PBST, 100 μL of SDMA antibody and SmD3 antibody were diluted in BSA-PBST, each was dispensed, and reacted overnight at 4° C. After washing three times with PBST on next day, 100 μL of secondary antibody diluted in BSA-PBST was added, and reacted at room temperature for 1 hour. After washing three times with PBST, 100 μL of TMB substrate was added and reacted at room temperature for 10-20 minutes, and 100 μL of 1N sulfuric acid solution was added to terminate the reaction. Then, the degree of SDMA inhibition by the compound was calculated by measuring the absorbance at 450 nm.

[3] = system: CTG-1932, a human non-small cell lung cancer patient-derived cell line; experiment: Subcutaneous xenograft mouse model of patient-derived CTG-1932 non-small cell lung cancer, tumor growth inhibition; format: in vivo; details: day 9
Description: For in vivo efficacy studies in a subcutaneous xenograft mouse model of CTG-1932, a human non-small cell lung cancer patient-derived cell line, combination therapy of compound-87 as a PRMT5 inhibitor according to one example of the present invention and with paclitaxel as a chemotherapy agent, was performed at Champions Oncology (USA).
To produce a non-small cell lung cancer xenograft model, CTG-1932 tumor stock was grown and harvested from primary mice and then transplanted subcutaneously into the left flank of immunocompromised female mice as a 5×5×5 mm^3 tumor fragment. When the tumor volume reached approximately 150-300 mm^3, the mice were separated into four groups of 10 each. All group consisted of a solvent-treated group (vehicle group), a compound-87 monotherapy group (50 mg/kg, oral administration, 3 days on/4 days off), a paclitaxel monotherapy group (20 mg/kg, intraperitoneal administration once a week), and combination treatment group of compound-87 (50 mg/kg, oral administration, 3 days on/4 days off) and paclitaxel (20 mg/kg, intraperitoneal administration once a week). tumor volume and body weight were measured twice a week.

[4] = system: human small cell lung cancer cells NCI-H1048; experiment: Subcutaneous xenograft mouse model of NCI-H1048 small cell lung cancer cells, tumor growth inhibition; format: in vivo; details: day 23
Description: For in vivo efficacy study in a subcutaneous xenograft mouse model of human small cell lung cancer cells NCI-H1048, co-administration of compound-87 as a PRMT5 inhibitor according to an example of the present invention and cisplatin as an alkylating agent of a chemotherapeutic agent, was performed. To produce a small cell lung cancer xenograft model, 10 million of NCI-H1048 cells were injected subcutaneously into the right flank of female nude mice, and tumor growth was monitored.
To evaluate the anticancer effect, when the tumor volume reached approximately 162 mm^3 on average, the mice were divided into four groups. The all group included a solvent-treated group (Vehicle 1 (Compound-87)+Vehicle 2 (cisplatin) group), a Compound-87 monotherapy group (50 mg/kg), a cisplatin monotherapy group (4 mg/kg), and combination therapy group of Compound-87 and cisplatin. The Compound-87 treatment group was administered orally on a 3-day administration/4-day non-administration schedule, and cisplatin was administered intraperitoneally once a week for 22 days (Day 1-Day 23). All mice were euthanized on Day 22 (Day 23).

`CN1CCC(Oc2ccc3c(c2)OCCN(C[C@H](O)CN2CCc4ccccc4C2)C3=O)CC1` [Compound-87, 4-[(2R)-3-(3,4-dihydro-1H-isoquinolin-2-yl)-2-hydroxy-propyl]-8-[(1-methyl-4-piperidyl)oxy]-2,3-dihydro-1,4-benzoxazepin-5-one] was tested, and the “change in expression of DNA damage repair genes (Z-score of Log2FPKM, heat map FIG. 30)” value (DNA damage repair genes) was “reduced expression of DNA damage repair genes”, the tumor volume ([1]; Compound-87 25 mg/kg oral (3 days on/4 off) in combination with gemcitabine 50 mg/kg i.p. twice a week) was 379 mm^3 and the tumor volume ([1]; Compound-87 50 mg/kg oral (3 days on/4 off) in combination with gemcitabine 50 mg/kg i.p. twice a week) was 235 mm^3. For the same compound, the “SDMA amount in tumor samples compared to the vehicle group” value ([2]; 25 mg/kg Compound-87, 3 days on/4 off for 24 days) was 37.4%, the “SDMA amount in tumor samples compared to the vehicle group” value ([2]; 50 mg/kg Compound-87, 3 days on/4 off for 24 days) was 27.7% and the inhibition at 25 mg/kg ([2]; Mus musculus, MIA PaCa-2, 25 mg/kg Compound-87, 3 days on/4 off for 24 days) was 62.6%. The inhibition at 50 mg/kg ([2]; Mus musculus, MIA PaCa-2, 50 mg/kg Compound-87, 3 days on/4 off for 24 days) was 72.3%, the “tumor growth inhibition compared to the solvent-treated group” value ([3]; compound-87 50 mg/kg oral single agent, 3 days on/4 off, not significant) was 39% and the “tumor growth inhibition compared to the solvent-treated group” value ([3]; compound-87 50 mg/kg oral together with paclitaxel 20 mg/kg i.p. once a week) was 89%. For the same compound, the partial response ([4]; compound-87 50 mg/kg oral combined with cisplatin 4 mg/kg i.p., partial response in all mice) was 60.6% and the “tumor growth inhibition rate” value ([4]; compound-87 alone, 50 mg/kg oral, 3-day administration/4-day non-administration) was 62.0%.
